Data on 21 molecules can be found in ChEMBL document CHEMBL4421721, “Use of dynamin ring stabilizers” (2012).

Active and inactive are the calls of the source. The calls are words filed in the database; no cut-off is given here.

Test [1] in a line: Inhibition of full-length native sheep brain dynamin 1 assessed as reduction in PS liposomes-induced GTPase activity in presence of tween-80 using 7 nM full-length dynamin 1. Further details: species or system Ovis aries.
Test [2] in a line: Inhibition of full-length native sheep brain dynamin 1 assessed as reduction in PS liposomes-induced GTPase activity in absence of tween-80 using 7 nM full-length dynamin 1. Further details: species or system Ovis aries.
A short description of test [3]: (§1) Ring stabilizer activity at full-length native sheep brain dynamin 1 assessed as stimulation of GTPase activity in absence of PS liposomes. Further details: species or system Ovis aries.
A further test concerns the target T1, Dynamin-1 (Homo sapiens) (UniProt Q05193).
T1 sequence (whole entry): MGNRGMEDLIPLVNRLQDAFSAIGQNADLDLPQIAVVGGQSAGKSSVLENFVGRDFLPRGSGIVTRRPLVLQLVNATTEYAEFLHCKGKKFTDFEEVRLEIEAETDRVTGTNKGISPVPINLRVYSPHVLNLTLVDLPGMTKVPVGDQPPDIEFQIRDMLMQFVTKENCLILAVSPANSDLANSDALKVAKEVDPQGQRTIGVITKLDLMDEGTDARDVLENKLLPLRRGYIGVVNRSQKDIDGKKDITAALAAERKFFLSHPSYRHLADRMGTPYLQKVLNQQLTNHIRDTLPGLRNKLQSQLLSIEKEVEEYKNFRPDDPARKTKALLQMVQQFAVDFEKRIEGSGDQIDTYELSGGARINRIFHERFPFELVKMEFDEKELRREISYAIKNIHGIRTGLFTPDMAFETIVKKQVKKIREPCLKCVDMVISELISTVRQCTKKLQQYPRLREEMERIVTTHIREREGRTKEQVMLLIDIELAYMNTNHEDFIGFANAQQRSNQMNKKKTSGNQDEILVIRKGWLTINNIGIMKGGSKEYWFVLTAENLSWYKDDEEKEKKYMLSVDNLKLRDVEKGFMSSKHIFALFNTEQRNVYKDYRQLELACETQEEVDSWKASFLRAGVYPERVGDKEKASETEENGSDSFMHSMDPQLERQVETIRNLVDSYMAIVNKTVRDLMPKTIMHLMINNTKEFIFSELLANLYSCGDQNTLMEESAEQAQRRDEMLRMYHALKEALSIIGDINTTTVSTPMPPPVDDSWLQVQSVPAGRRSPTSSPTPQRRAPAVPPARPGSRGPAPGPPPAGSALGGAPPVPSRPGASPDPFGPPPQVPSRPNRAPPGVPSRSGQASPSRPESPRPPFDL
In words: Ring stabilizer activity at recombinant dynamin 1 dimeric GG2 form (unknown origin) assessed as stimulation of GTPase activity using 200 to 1000 nM full-length dynamin.

Test [4] in a line: Inhibition of full-length native sheep brain dynamin 1 assessed as reduction in PS liposomes-induced GTPase activity using 20 nM full-length dynamin 1. Further details: species or system Ovis aries.
For test [5], the species on record is Ovis aries. Described as §1.
The target of test [6] is T2, Dynamin-2 (Homo sapiens) (UniProt P50570).
T2 sequence (whole entry): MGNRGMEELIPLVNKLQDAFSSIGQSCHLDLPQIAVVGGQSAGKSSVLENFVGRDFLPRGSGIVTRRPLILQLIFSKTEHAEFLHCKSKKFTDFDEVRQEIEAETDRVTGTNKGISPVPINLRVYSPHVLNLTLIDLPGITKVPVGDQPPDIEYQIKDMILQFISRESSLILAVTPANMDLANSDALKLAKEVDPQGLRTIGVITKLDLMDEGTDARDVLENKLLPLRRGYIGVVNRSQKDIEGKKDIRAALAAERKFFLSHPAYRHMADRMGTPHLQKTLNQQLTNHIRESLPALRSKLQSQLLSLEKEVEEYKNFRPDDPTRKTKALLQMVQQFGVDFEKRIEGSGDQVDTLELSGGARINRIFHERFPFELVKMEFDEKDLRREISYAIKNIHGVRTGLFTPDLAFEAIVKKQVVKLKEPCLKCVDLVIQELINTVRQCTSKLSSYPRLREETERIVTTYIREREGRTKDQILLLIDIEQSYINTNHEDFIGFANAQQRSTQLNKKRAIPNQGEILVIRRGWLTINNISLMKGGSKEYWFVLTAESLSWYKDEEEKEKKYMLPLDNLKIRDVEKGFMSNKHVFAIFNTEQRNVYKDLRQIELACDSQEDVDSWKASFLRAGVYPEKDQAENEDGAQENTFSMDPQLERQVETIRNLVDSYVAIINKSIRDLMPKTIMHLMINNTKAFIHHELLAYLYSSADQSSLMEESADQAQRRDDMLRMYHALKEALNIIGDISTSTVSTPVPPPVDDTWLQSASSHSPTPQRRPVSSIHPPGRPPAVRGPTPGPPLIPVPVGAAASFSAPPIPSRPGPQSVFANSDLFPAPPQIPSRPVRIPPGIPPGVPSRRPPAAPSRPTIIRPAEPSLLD
The test can be described thus: Inhibition of Dynamin-2 in human lymphoblasts assessed as accumulation of clathrin coated pits at the plasma membrane incubated for 30 mins by electron microscopic analysis.

The species named for test [7] is Ovis aries. In words: Ring stabilizer activity at full-length native sheep brain dynamin 1 assessed as stimulation of GTPase activity in absence of PS liposomes and in presence of tween-80.
A short description of test [8]: Inhibition of full-length native sheep brain dynamin 1 assessed as reduction in PS liposomes-induced GTPase activity. Further details: species or system Ovis aries.
The species entered for test [9] is Ovis aries. The test can be described thus: Induction of ring assembly of full-length native sheep brain dynamin 1 at 300 uM using 520 nM full-length dynamin in presence of 40 mM NaCl by Coomassie staining based SDS gel electrophoresis method.
Test [10] concerns the target T2, Dynamin-2 (Homo sapiens). In words: Ring stabilizer activity at Dynamin-2 in human lymphoblasts assessed as accumulation in all cells of clathrin coated pits with highly elongated necks incubated for 30 mins by electron microscopic analysis. The class given is cell-based.
The species named for test [11] is Ovis aries. In words: Induction of ring assembly of full-length native sheep brain dynamin 1 at 100 uM using 520 nM full-length dynamin in presence of 40 to 60 […] by Coomassie staining based SDS gel electrophoresis method.
The target in test [12] is T2, Dynamin-2 (Homo sapiens). In words: Ring stabilizer activity at Dynamin-2 in human lymphoblasts assessed as accumulation in all cells of clathrin coated pits with highly elongated necks encircled by electron dense rings incubated for 30 mins by electron microscopic analysis. The class given is cell-based.
The target in test [13] is T3, Dynamin-1 (Rattus norvegicus) (UniProt P21575).
T3 sequence (whole entry): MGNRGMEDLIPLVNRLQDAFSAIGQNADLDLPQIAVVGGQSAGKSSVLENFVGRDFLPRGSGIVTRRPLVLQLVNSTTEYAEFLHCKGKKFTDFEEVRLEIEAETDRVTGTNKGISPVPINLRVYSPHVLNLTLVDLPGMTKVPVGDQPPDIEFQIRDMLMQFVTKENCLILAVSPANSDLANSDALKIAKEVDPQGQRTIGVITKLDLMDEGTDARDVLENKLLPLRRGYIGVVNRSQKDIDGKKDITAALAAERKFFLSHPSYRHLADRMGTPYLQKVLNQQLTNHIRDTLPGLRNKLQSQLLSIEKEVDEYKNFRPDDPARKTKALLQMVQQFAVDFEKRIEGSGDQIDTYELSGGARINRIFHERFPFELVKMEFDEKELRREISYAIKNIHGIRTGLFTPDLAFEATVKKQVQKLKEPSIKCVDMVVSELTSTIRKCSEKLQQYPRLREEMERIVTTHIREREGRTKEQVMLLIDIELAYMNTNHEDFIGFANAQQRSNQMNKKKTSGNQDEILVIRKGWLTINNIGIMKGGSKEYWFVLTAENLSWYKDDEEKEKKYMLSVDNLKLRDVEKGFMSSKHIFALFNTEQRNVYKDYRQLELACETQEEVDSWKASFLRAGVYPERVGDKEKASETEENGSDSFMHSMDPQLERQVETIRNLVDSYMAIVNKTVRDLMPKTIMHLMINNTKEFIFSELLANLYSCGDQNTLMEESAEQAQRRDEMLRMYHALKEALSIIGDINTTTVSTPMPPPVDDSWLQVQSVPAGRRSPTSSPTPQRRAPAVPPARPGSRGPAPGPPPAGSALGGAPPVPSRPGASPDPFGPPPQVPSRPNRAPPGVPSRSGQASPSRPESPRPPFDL
In words: Ring stabilizer activity at Dynamin-1 rat brain synaptosomes depolarised with KCl assessed as formation of trapped endocytic pits encircled by a single electron dense ring incubated for 30 mins by electron microscopic analysis. The class given is subcellular.

Test [14] is described as follows: Ring stabilizer activity at full-length native sheep brain dynamin 1 assessed as stimulation of GTPase activity in absence of PS liposomes using 200 nM full-length dynamin 1. Further details: species or system Ovis aries.
Test [15] is filed under the species Ovis aries. In words: Inhibition of dis-assembly of pre-assembled full-length native sheep brain dynamin 1 pre-incubated in presence of PS liposomes followed compound addition at 5 uM and measured after 10 mins.
In test [16] the target is Dynamin-2 (Homo sapiens) (UniProt P50570). The test can be described thus: Inhibition of Dynamin-2 in human lymphoblasts incubated for 30 mins by electron microscopic analysis.

The term IC50 denotes the concentration needed to halve the response being measured. Take `O=C(N/N=C/c1ccc(O)c(O)c1O)c1cc2ccccc2cc1O`: the IC50 entry in test [1] is “Not Active”; in test [2] it was 3.1 µM.
The term EC50 denotes the concentration at which the effect is half-maximal. In the case of `N=c1oc2c(O)c(O)ccc2cc1C(=O)NCCCNC(=O)c1cc2ccc(O)c(O)c2oc1=N`, the EC50 in test [3] was found to be 1 µM. Moreover, the result at Dynamin-1 (Homo sapiens) was inactive. Further, the IC50 in test [4] came out at 0.45 µM.
With `O=C(N/N=C/c1ccc(O)c(O)c1)c1cc2ccccc2cc1O`, the outcome in the test listed under Ovis aries [5] was Active. On Dynamin-2 (Homo sapiens) [6], the inhibition entry was “Active”.
`O=C(N/N=C/c1cc(O)c(O)cc1O)c1cc2ccccc2cc1O`: in the test listed under Ovis aries [5], the outcome was Active. Besides, in the test filed under Ovis aries [7], the result was inactive. Besides, the IC50 came out at 2.7 µM in test [1] (read-out: IC50) and 0.3 µM in test [8].
On to `CCCCCCNC(=O)/C(C#N)=C/c1c(C)n(CCCN(C)C)c2ccccc12`, for which the outcome in the test filed under Ovis aries [7] was Active.
On to `N=c1oc2cc(O)c(O)cc2cc1C(=O)NCCCNC(=O)c1cc2cc(O)c(O)cc2oc1=N`, for which, in test [3], the EC50 was found to be 4 µM. Moreover, the IC50 in test [4] amounted to 0.26 µM.
In the case of `N#C/C(=C\c1ccc(O)c(O)c1)C(=O)NCCCNC(=O)/C(C#N)=C/c1ccc(O)c(O)c1`, the outcome (in the test listed under Ovis aries [9]; at Dynamin-2 (Homo sapiens) [10]; in the test filed under Ovis aries [7]; in the test filed under Ovis aries [11]; at Dynamin-2 (Homo sapiens) [12]; in test [13]) was Active. For the same molecule, the result on Dynamin-1 (Homo sapiens) was inactive.
With `N=c1oc2cc(O)ccc2cc1C(=O)NCCCNC(=O)c1cc2ccc(O)cc2oc1=N`, the EC50 in test [14] (read-out: EC50) came to 40 µM. Moreover, the IC50 in [4] turned out to be 17.3 µM.
For the molecule `CCCCCCCCNC(=O)/C(C#N)=C/c1cn(CCCN(C)C)c2ccccc12`, the outcome in the test listed under Ovis aries [5] was inactive. Also, the outcome in the test listed under Ovis aries [7] was Active. Further, in the test filed under Ovis aries [15], the inhibition entry was “Active”.
Turning to `CCCCCCCCNC(=O)/C(C#N)=C/c1c(C)n(CCN(C)C)c2ccccc12`, in the test filed under Ovis aries [7], the result was Active.
Turning to `CCCCCCCCCCCCCCCCCC[N+](C)(C)C`, the result in the test listed under Ovis aries [7] was Active.
On to `O=C(N/N=C/c1cc(O)c(O)c(O)c1)c1cc2ccccc2cc1O`, for which the IC50 stood at 468 µM in [1] (read-out: IC50) and 4.4 µM in test [2].
For `CCCCCCNC(=O)/C(C#N)=C/c1c(C)n(CCN(C)C)c2ccccc12`, in the test filed under Ovis aries [7], the outcome was Active.
In the case of `N=c1oc2cc(O)c(O)cc2cc1C(=O)NCCNC(=O)c1cc2cc(O)c(O)cc2oc1=N`, in test [14] (read-out: EC50), the EC50 came to 31 µM. Also, in [4], the IC50 worked out at 0.33 µM.
`O=C(N/N=C/c1cc(O)cc(O)c1)c1cc2ccccc2cc1O`: the IC50 result was “Not Active” in test [1] and 39.8 µM in [2].
On to CETRIMIDE, for which the inhibition entry at Dynamin-2 (Homo sapiens) [16] was “Active”.
Consider `N=c1oc2c(O)cccc2cc1C(=O)NCCCNC(=O)c1cc2cccc(O)c2oc1=N`, for which the EC50 entry in test [14] was “Not Active”. The IC50 in test [4] is 36.6 µM.
Consider `CCCCCCCCCCNC(=O)/C(C#N)=C/c1cn(CCN(C)C)c2ccccc12`, for which the result in the test listed under Ovis aries [7] was Active.
`O=C(N/N=C/c1cccc(O)c1O)c1cc2ccccc2cc1O`: the IC50 in test [1] (read-out: IC50) worked out at 19.8 µM; in test [2], 22.1 µM.
On the same counts, the results for `O=C(N/N=C/c1ccc(O)cc1O)c1cc2ccccc2cc1O` are 200 µM and 7.3 µM.
On the same counts, the results for `COc1cc(/C=N/NC(=O)c2cc3ccccc3cc2O)c(O)cc1O` are 1170 µM and 3.6 µM.
